Assay: Antagonist activity at P2Y12 receptor in human platelet rich plasma assessed as inhibition of ADP-induced platelet aggregation by light transmission aggregometry

| Structure (SMILES) | IC50 [µM] |
| --- | --- |
| CCCCCOC(=O)N1CCN(C(=O)[C@H](CCC(=O)O)NC(=O)c2cc(N3CCC(C(=O)N(CC)CC)CC3)nc(-c3ccccc3)n2)CC1 [(S)-4-(6-(4-(diethylcarbamoyl)piperidin-1-yl)-2-phenylpyrimidine-4-carboxamido)-5-oxo-5-(4-(pentyloxycarbonyl)piperazin-1-yl)pentanoic acid] | 0.4 |
| CCCCCOC(=O)N1CCN(C(=O)[C@H](CCC(=O)O)NC(=O)c2cc(N3CCN(C(=O)N(C)C)CC3)nc(-c3ccccc3)n2)CC1 [(S)-4-(6-(4-(dimethylcarbamoyl)piperazin-1-yl)-2-phenylpyrimidine-4-carboxamido)-5-oxo-5-(4-(pentyloxycarbonyl)piperazin-1-yl)pentanoic acid] | 1.6 |
| CCCCCOC(=O)N1CCN(C(=O)[C@H](CCC(=O)O)NC(=O)c2cc(N3CCC(C(=O)N(C)C)CC3)nc(-c3ccccc3)n2)CC1 [(S)-4-(6-(4-(dimethylcarbamoyl)piperidin-1-yl)-2-phenylpyrimidine-4-carboxamido)-5-oxo-5-(4-(pentyloxycarbonyl)piperazin-1-yl)pentanoic acid] | 0.37 |
| CCCCCOC(=O)N1CCN(C(=O)[C@H](CCC(=O)O)NC(=O)c2cc(N3CCC(C(=O)NCC)CC3)nc(-c3ccccc3)n2)CC1 [(S)-4-(6-(4-(ethylcarbamoyl)piperidin-1-yl)-2-phenylpyrimidine-4-carboxamido)-5-oxo-5-(4-(pentyloxycarbonyl)piperazin-1-yl)pentanoic acid] | 0.93 |
| CCCCCOC(=O)N1CCN(C(=O)[C@H](CCC(=O)O)NC(=O)c2cc(N3CCC(COC)CC3)nc(-c3ccccc3)n2)CC1 [(S)-4-(6-(4-(methoxymethyl)piperidin-1-yl)-2-phenylpyrimidine-4-carboxamido)-5-oxo-5-(4-(pentyloxycarbonyl)piperazin-1-yl)pentanoic acid] | 2 |
| CCCCCOC(=O)N1CCN(C(=O)[C@H](CCC(=O)O)NC(=O)c2cc(N3CCN(C(C)=O)CC3)nc(-c3ccccc3)n2)CC1 [(S)-4-(6-(4-acetylpiperazin-1-yl)-2-phenylpyrimidine-4-carboxamido)-5-oxo-5-(4-(pentyloxycarbonyl)piperazin-1-yl)pentanoic acid] | 1.5 |
| CCCCCOC(=O)N1CCN(C(=O)[C@H](CCC(=O)O)NC(=O)c2cc(N3CCC(N)CC3)nc(-c3ccccc3)n2)CC1 [(S)-4-(6-(4-aminopiperidin-1-yl)-2-phenylpyrimidine-4-carboxamido)-5-oxo-5-(4-(pentyloxycarbonyl)piperazin-1-yl)pentanoic acid] | 0.72 |
| CCCCCOC(=O)N1CCN(C(=O)[C@H](CCC(=O)O)NC(=O)c2cc(N3CCN(C(N)=O)CC3)nc(-c3ccccc3)n2)CC1 [(S)-4-(6-(4-carbamoylpiperazin-1-yl)-2-phenylpyrimidine-4-carboxamido)-5-oxo-5-(4-(pentyloxycarbonyl)piperazin-1-yl)pentanoic acid] | 0.94 |
| CCCCCOC(=O)N1CCN(C(=O)[C@H](CCC(=O)O)NC(=O)c2cc(N3CCC(C(N)=O)CC3)nc(-c3ccccc3)n2)CC1 [(S)-4-(6-(4-carbamoylpiperidin-1-yl)-2-phenylpyrimidine-4-carboxamido)-5-oxo-5-(4-(pentyloxycarbonyl)piperazin-1-yl)pentanoic acid] | 0.69 |
| CCCCCOC(=O)N1CCN(C(=O)[C@H](CCC(=O)O)NC(=O)c2cc(N3CCC(OC)CC3)nc(-c3ccccc3)n2)CC1 [(S)-4-(6-(4-methoxypiperidin-1-yl)-2-phenylpyrimidine-4-carboxamido)-5-oxo-5-(4-(pentyloxycarbonyl)piperazin-1-yl)pentanoic acid] | 2.7 |
| CCCCCOC(=O)N1CCN(C(=O)[C@H](CCC(=O)O)NC(=O)c2cc(N3CCN(C)CC3)nc(-c3ccccc3)n2)CC1 [(S)-4-(6-(4-methylpiperazin-1-yl)-2-phenylpyrimidine-4-carboxamido)-5-oxo-5-(4-(pentyloxycarbonyl)piperazin-1-yl)pentanoic acid] | 1.4 |
| CCCCCOC(=O)N1CCN(C(=O)[C@H](CCC(=O)O)NC(=O)c2cc(N3CCC(C)CC3)nc(-c3ccccc3)n2)CC1 [(S)-4-(6-(4-methylpiperidin-1-yl)-2-phenylpyrimidine-4-carboxamido)-5-oxo-5-(4-(pentyloxycarbonyl)piperazin-1-yl)pentanoic acid] | > 10 |
| CCCCCOC(=O)N1CCN(C(=O)[C@H](CCC(=O)O)NC(=O)c2cc(N3CCC(N4CCOCC4)CC3)nc(-c3ccccc3)n2)CC1 [(S)-4-(6-(4-morpholinopiperidin-1-yl)-2-phenylpyrimidine-4-carboxamido)-5-oxo-5-(4-(pentyloxycarbonyl)piperazin-1-yl)pentanoic acid] | 0.78 |
| CCCCCOC(=O)N1CCN(C(=O)[C@H](CCC(=O)O)NC(=O)c2cc(OCC3CCN(C)CC3)nc(-c3ccccc3)n2)CC1 [(S)-4-(6-((1-methylpiperidin-4-yl)methoxy)-2-phenylpyrimidine-4-carboxamido)-5-oxo-5-(4-(pentyloxycarbonyl)piperazin-1-yl)pentanoic acid] | 3.6 |
| CCCCCOC(=O)N1CCN(C(=O)[C@H](CCC(=O)O)NC(=O)c2cc(SC3CCCCC3)nc(-c3ccccc3)n2)CC1 [(S)-4-(6-(cyclohexylthio)-2-phenylpyrimidine-4-carboxamido)-5-oxo-5-(4-(pentyloxycarbonyl)piperazin-1-yl)pentanoic acid] | > 10 |
| CCCCCOC(=O)N1CCN(C(=O)[C@H](CCC(=O)O)NC(=O)c2cc(SC3CCCC3)nc(-c3ccccc3)n2)CC1 [(S)-4-(6-(cyclopentylthio)-2-phenylpyrimidine-4-carboxamido)-5-oxo-5-(4-(pentyloxycarbonyl)piperazin-1-yl)pentanoic acid] | > 10 |
| CCCCCOC(=O)N1CCN(C(=O)[C@H](CCC(=O)O)NC(=O)c2cc(SC(C)(C)C)nc(-c3ccccc3)n2)CC1 [(S)-4-(6-(tert-butylthio)-2-phenylpyrimidine-4-carboxamido)-5-oxo-5-(4-(pentyloxycarbonyl)piperazin-1-yl)pentanoic acid] | > 10 |
| CCCCCOC(=O)N1CCN(C(=O)[C@H](CCC(=O)O)NC(=O)c2cc(N3CCOCC3)nc(-c3ccccc3)n2)CC1 [(S)-4-(6-morpholino-2-phenylpyrimidine-4-carboxamido)-5-oxo-5-(4-(pentyloxycarbonyl)piperazin-1-yl)pentanoic acid] | 6.3 |
| CCCCOC(=O)N1CCN(C(=O)[C@H](CCC(=O)O)NC(=O)c2cc(OC3CCN(C(C)C)CC3)nc(-c3ccccc3)n2)CC1 [(S)-5-(4-(butoxycarbonyl)piperazin-1-yl)-4-(6-(1-isopropylpiperidin-4-yloxy)-2-phenylpyrimidine-4-carboxamido)-5-oxopentanoic acid] | 1.8 |
| CCCCOC(=O)N1CCN(C(=O)[C@H](CCC(=O)O)NC(=O)c2cc(OCCN(CC)CC)nc(-c3ccccc3)n2)CC1 [(S)-5-(4-(butoxycarbonyl)piperazin-1-yl)-4-(6-(2-(diethylamino)ethoxy)-2-phenylpyrimidine-4-carboxamido)-5-oxopentanoic acid] | 3 |
| CCCCOC(=O)N1CCN(C(=O)[C@H](CCC(=O)O)NC(=O)c2cc(OCCOC)nc(-c3ccccc3)n2)CC1 [(S)-5-(4-(butoxycarbonyl)piperazin-1-yl)-4-(6-(2-methoxyethoxy)-2-phenylpyrimidine-4-carboxamido)-5-oxopentanoic acid] | 2.6 |
| CCCCOC(=O)N1CCN(C(=O)[C@H](CCC(=O)O)NC(=O)c2cc(N3CCC(CCOC)CC3)nc(-c3ccccc3)n2)CC1 [(S)-5-(4-(butoxycarbonyl)piperazin-1-yl)-4-(6-(4-(2-methoxyethyl)piperidin-1-yl)-2-phenylpyrimidine-4-carboxamido)-5-oxopentanoic acid] | 1.2 |
| CCCCOC(=O)N1CCN(C(=O)[C@H](CCC(=O)O)NC(=O)c2cc(N3CCC(C(=O)N(CC)CC)CC3)nc(-c3ccccc3)n2)CC1 [(S)-5-(4-(butoxycarbonyl)piperazin-1-yl)-4-(6-(4-(diethylcarbamoyl)piperidin-1-yl)-2-phenylpyrimidine-4-carboxamido)-5-oxopentanoic acid] | 0.28 |
| CCCCOC(=O)N1CCN(C(=O)[C@H](CCC(=O)O)NC(=O)c2cc(N3CCC(C(=O)N(C)C)CC3)nc(-c3ccccc3)n2)CC1 [(S)-5-(4-(butoxycarbonyl)piperazin-1-yl)-4-(6-(4-(dimethylcarbamoyl)piperidin-1-yl)-2-phenylpyrimidine-4-carboxamido)-5-oxopentanoic acid] | 1.5 |
| CCCCOC(=O)N1CCN(C(=O)[C@H](CCC(=O)O)NC(=O)c2cc(N3CCC(OC)CC3)nc(-c3ccccc3)n2)CC1 [(S)-5-(4-(butoxycarbonyl)piperazin-1-yl)-4-(6-(4-methoxypiperidin-1-yl)-2-phenylpyrimidine-4-carboxamido)-5-oxopentanoic acid] | 1.8 |
| CCCCOC(=O)N1CCN(C(=O)[C@H](CCC(=O)O)NC(=O)c2cc(N3CCC(N4CCOCC4)CC3)nc(-c3ccccc3)n2)CC1 [(S)-5-(4-(butoxycarbonyl)piperazin-1-yl)-4-(6-(4-morpholinopiperidin-1-yl)-2-phenylpyrimidine-4-carboxamido)-5-oxopentanoic acid] | 0.88 |
| CCCCOC(=O)N1CCN(C(=O)[C@H](CCC(=O)O)NC(=O)c2cc(OCC3CCN(C)CC3)nc(-c3ccccc3)n2)CC1 [(S)-5-(4-(butoxycarbonyl)piperazin-1-yl)-4-(6-((1-methylpiperidin-4-yl)methoxy)-2-phenylpyrimidine-4-carboxamido)-5-oxopentanoic acid] | 3 |
| CCCCOC(=O)N1CCN(C(=O)[C@H](CCC(=O)O)NC(=O)c2cc(N3CCC(N4CCCC4)CC3)nc(-c3ccccc3)n2)CC1 [(S)-5-(4-(butoxycarbonyl)piperazin-1-yl)-5-oxo-4-(2-phenyl-6-(4-(pyrrolidin-1-yl)piperidin-1-yl)pyrimidine-4-carboxamido)pentanoic acid] | 0.66 |
| CCCCOC(=O)N1CCN(C(=O)[C@H](CCC(=O)O)NC(=O)c2cc(N3CCC(C(=O)N4CCCC4)CC3)nc(-c3ccccc3)n2)CC1 [(S)-5-(4-(butoxycarbonyl)piperazin-1-yl)-5-oxo-4-(2-phenyl-6-(4-(pyrrolidine-1-carbonyl)piperidin-1-yl)pyrimidine-4-carboxamido)pentanoic acid] | 0.39 |

From BindingDB's records for doi:10.1016/j.bmcl.2009.09.017 (Pfizer, 2009)
